# Structures can show the parent of a compound that is named as a salt.
# What was measured:
# [1] = cited patent; cited from earlier work
# [2] = literature pilot study; cited from earlier work
structure (smiles),measurement,setting,value
"Cn1cc(C(=O)c2ccc(Cl)cc2)cc1C(=O)CN1CCOCC1 (as salt: hydrochloride) [13-1, 1-[4-(4-Chlorobenzoyl)-1-methyl-1H-pyrrol-2-yl]-2-(1-morpholino)-ethanone hydrochloride]",melting point,,264 to 267 °C
"Cn1cc(C(=O)c2ccc(Cl)cc2)cc1C(=O)CN1CCCCC1 [Example 12, 1-[4-(4-Chlorobenzoyl)-1-methyl-1H-pyrrol-2-yl]-2-(1-piperidinyl)-ethanone]",melting point,,129 to 130 °C
Cn1cc(C(=O)c2ccc(Cl)cc2)cc1C(=O)CN1CCCC1 (as salt: hydrochloride),melting point,,265 to 267 °C
CC1(C)O[C@@H]2[C@@H](CO[C@@]3(COS(N)(=O)=O)OC(C)(C)O[C@@H]23)O1 [topiramate],efficacy in an animal model of neuropathic pain,[1],evidence of pharmacological activity
Cn1cc(C(=O)CN)cc1C(=O)c1ccc(Cl)cc1 (as salt: hydrochloride),melting point,,290 °C (dec.)
NCC1(CC(=O)O)CCCCC1 [Gabapentin],effect on brush-induced and cold allodynia,[2],significantly effective
same,effect on detection and pain thresholds to static mechanical and hot stimuli,[2],no effect
same,reducing paroxysmal pain,[2],particularly effective
same,relief of ongoing spontaneous pain,[2],moderate and statistically significant relief
